Consider one molecule from ChEMBL document CHEMBL1136032, “Remarkable influence of the aromatic substructure in 9-methoxystrobilurin derivatives on their antifungal activity” (Bioorg Med Chem Lett, 2002).

Active and inactive are the calls of the source. The rule behind the calls is not given here.

The subject of assay [1] is Candida albicans. In words: Compound was tested for the antifungal activity against Candida albicans (IFO1594) at a concentration of 0.1 ug/disk; zone of inhibition was measured after 48 h incubation; NE denotes not effective. The assay is classed as functional, organism-based.
The test system of assay [2] is Aspergillus fumigatus. In words: Compound was tested for the antifungal activity against Aspergillus fumigatus (R-1301) at a concentration of 0.1 ug/disk; zone of inhibition was measured after 48 hr incubation; NE denotes not effective. The assay is classed as functional, organism-based.
The test system of assay [3] is Fusarium solani. In words: Compound was tested for the antifungal activity against Fusarium solani (R-2800) at a concentration of 0.1 ug/disk; zone of inhibition was measured after 48 hr incubation; NE denotes not effective. The assay is classed as functional, organism-based.
Assay [4] relates to Candida albicans. In words: Compound was tested for the antifungal activity against Candida albicans (IFO1594) at a concentration of 1 ug/disk; zone of inhibition was measured after 48 hr incubation. The assay is classed as functional.
The next assay deals with MRC5. In words: Cytotoxicity against human diploid embryotic cell line (MRC-5). The note with it: Homo sapiens, MRC5. The assay is classed as functional, cell-based.
Assay [5] deals with Saccharomyces cerevisiae. In words: Compound was tested for the antifungal activity against Saccharomyces cerevisiae (IAM4861) at a concentration of 10 ug/disk; zone of inhibition was measured after 48 hr incubation. The assay is classed as functional.
In assay [6] the test system is Saccharomyces cerevisiae. In words: Compound was tested for the antifungal activity against Saccharomyces cerevisiae (IAM4861) at a dose of 1 ug/disk; the diameter of each inhibition zone was measured after 48 hr incubation. The assay is classed as functional.
The subject of assay [7] is Fusarium solani. In words: Compound was tested for the antifungal activity against Fusarium solani (R-2800) at a concentration of 10 ug/disk; zone of inhibition was measured after 48 hr incubation; NE denotes not effective. The assay is classed as functional, organism-based.
Assay [8] deals with Aspergillus fumigatus. In words: Compound was tested for the antifungal activity against Aspergillus fumigatus (R-1301) at a concentration of 10 ug/disk; zone of inhibition was measured after 48 hr incubation. It counts as functional.
In assay [9] the test system is Fusarium solani. In words: Compound was tested for the antifungal activity against Fusarium solani (R-2800) at a concentration of 1 ug/disk; zone of inhibition was measured after 48 hr incubation; NE denotes not effective. It counts as functional, organism-based.
For assay [10], the system named is Penicillium citrinum. In words: Compound was tested for the antifungal activity against Penicillium citrinum (R-3703) at a concentration of 0.1 ug/disk; zone of inhibition was measured after 48 hr incubation; +/- denotes slightly effective. It counts as functional, organism-based.
Assay [11] concerns Penicillium citrinum. In words: Compound was tested for the antifungal activity against Penicillium citrinum (R-3703) at a concentration of 1 ug/disk; zone of inhibition was measured after 48 hr incubation. The assay is classed as functional.
Assay [12] concerns Saccharomyces cerevisiae. In words: Compound was tested for the antifungal activity against Saccharomyces cerevisiae (IAM4861) at a concentration of 0.1 ug/disk; zone of inhibition was measured after 48 hr incubation. The assay is classed as functional.
The subject of assay [13] is Penicillium citrinum. In words: Compound was tested for the antifungal activity against Penicillium citrinum (R-3703) at a concentration of 10 ug/disk; zone of inhibition was measured after 48 h incubation. The assay is classed as functional.
In assay [14] the test system is Candida albicans. In words: Compound was tested for the antifungal activity against Candida albicans (IFO1594) at a concentration of 10 ug/disk; zone of inhibition was measured after 48 hr incubation. It counts as functional.
The test system of assay [15] is Aspergillus fumigatus. In words: Compound was tested for the antifungal activity against Aspergillus fumigatus (R-1301) at a concentration of 1 ug/disk; zone of inhibition was measured after 48 hr incubation. It counts as functional.

Turning to `CO\C=C(C(=O)OC)/C(C)=C(\C=C\c1cccc2ccccc12)OC`, the “Diameter of inhibition zone” value in the assay on Candida albicans [1], with Aspergillus fumigatus [2], with Fusarium solani [3], with Fusarium solani [7] and in the assay with Fusarium solani [9] was “inactive” in each case. The Diameter of inhibition zone in the assay with Candida albicans [4] was 5 mm; in the assay on Saccharomyces cerevisiae [5] it was 22 mm; with Saccharomyces cerevisiae [6] it was 18 mm; in the assay on Aspergillus fumigatus [8], 14 mm; in the assay on Penicillium citrinum [10] it was “Weak activity”; in the assay with Penicillium citrinum [11] it was 12 mm. The Diameter of inhibition zone with Saccharomyces cerevisiae [12] came out at 5 mm; in the assay with Penicillium citrinum [13], 17 mm; in the assay on Candida albicans [14], 15 mm; with Aspergillus fumigatus [15], 10 mm. Further, in the assay on MRC5, the IC50 is greater than 100 µM.

What is called IC50 is the concentration at which inhibition is half-maximal. Low values mean greater potency, high ones weaker potency.
